Assay results from ChEMBL document CHEMBL1201862, “PubChem BioAssay data set” (2004).
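In this assay, cells in 96-well plates receive the compound at five concentrations for 48 hours. Endpoints are linearly interpolated between the surrounding concentrations. At the GI50, growth is halved.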 The source made the active and inactive calls. Rule as the data show it: active = GI50 up to about 1.1 µM and inactive = higher.

Legend:
Experiment in all cases: NCI-60 cell line screen, 48 h
COLO 205 = system: COLO 205
HCC 2998 = system: HCC 2998
HCT-15 = system: HCT-15
MOLT-4 = system: MOLT-4
NCI-H226 = system: NCI-H226
NCI-H522 = system: NCI-H522
SF-268 = system: SF-268
SF-295 = system: SF-295
SK-MEL-2 = system: SK-MEL-2
SK-MEL-5 = system: SK-MEL-5
SNB-19 = system: SNB-19
SR = system: SR
TK-10 = system: TK-10
UO-31 = system: UO-31
RXF 393 = system: RXF 393
SNB-75 = system: SNB-75
MDA-N = system: MDA-N
NCI/ADR-RES = system: NCI/ADR-RES
Hs-578T = system: Hs-578T

Row | SMILES | GI50 (COLO 205) | GI50 (HCC 2998) | GI50 (HCT-15) | GI50 (MOLT-4) | GI50 (NCI-H226) | GI50 (NCI-H522) | GI50 (SF-268) | GI50 (SF-295) | GI50 (SK-MEL-2) | GI50 (SK-MEL-5) | GI50 (SNB-19) | GI50 (SR) | GI50 (TK-10) | GI50 (UO-31) | GI50 (RXF 393) | GI50 (SNB-75) | GI50 (MDA-N) | GI50 (NCI/ADR-RES) | GI50 (Hs-578T)
1 | COc1cc(/C=C(\C#N)C(=O)c2ccccc2)ccc1O | > 100 µM (inactive) | > 100 µM (inactive) | > 100 µM | > 100 µM (inactive) | > 100 µM (inactive) | > 100 µM (inactive) | > 100 µM (inactive) | > 100 µM (inactive) | > 100 µM (inactive) | > 100 µM (inactive) | > 100 µM (inactive) | > 100 µM (inactive) | > 100 µM (inactive) | > 100 µM (inactive) | – | – | – | – | –
2 | O=C1OC(c2ccc(Cl)c3ccccc23)c2ccccc21 (centres undefined) | > 100 µM (inactive) | 91.2 µM (inactive) | 90.4 µM | 77.6 µM (inactive) | – | > 100 µM (inactive) | > 100 µM (inactive) | 70.5 µM (inactive) | > 100 µM (inactive) | > 100 µM (inactive) | > 100 µM (inactive) | > 100 µM (inactive) | – | > 100 µM (inactive) | 26.1 µM (inactive) | 6.07 µM (inactive) | – | – | –
3 | CC(C)(C)c1cc(COc2cc(COc3ccc(-c4c5c(nc6c4CCc4ccc(-c7c8ccccc8nc8ccccc78)cc4-6)-c4cc(-c6c7ccccc7nc7ccccc67)ccc4CC5)cc3)cc(OCc3cc(C(C)(C)C)cc(C(C)(C)C)c3)c2)cc(C(C)(C)C)c1 | > 100 µM (inactive) | 80.5 µM (inactive) | > 100 µM | – | > 100 µM (inactive) | > 100 µM (inactive) | > 100 µM (inactive) | > 100 µM (inactive) | > 100 µM (inactive) | > 100 µM (inactive) | > 100 µM (inactive) | – | > 100 µM (inactive) | > 100 µM (inactive) | – | > 100 µM (inactive) | > 100 µM (inactive) | > 100 µM (inactive) | –
4 | NC1=CN2c3ccccc3N(CC(=O)O)C2C=C1 (centres undefined) | > 100 µM (inactive) | > 100 µM (inactive) | > 100 µM | > 100 µM (inactive) | > 100 µM (inactive) | – | > 100 µM (inactive) | > 100 µM (inactive) | > 100 µM (inactive) | > 100 µM (inactive) | > 100 µM (inactive) | > 100 µM (inactive) | > 100 µM (inactive) | > 100 µM (inactive) | > 100 µM (inactive) | > 100 µM (inactive) | – | > 100 µM (inactive) | > 100 µM (inactive)
5 | COP(=O)(Cc1ccc(/C=C/C#N)o1)OC | > 100 µM (inactive) | – | > 100 µM | > 100 µM (inactive) | > 100 µM (inactive) | > 100 µM (inactive) | > 100 µM (inactive) | – | – | – | > 100 µM (inactive) | > 100 µM (inactive) | > 100 µM (inactive) | – | > 100 µM (inactive) | > 100 µM (inactive) | – | > 100 µM (inactive) | 62.2 µM (inactive)
6 | COc1ccc(/C=N/n2c(C)n[nH]c2=O)cc1 | > 100 µM (inactive) | > 100 µM (inactive) | > 100 µM | > 100 µM (inactive) | > 100 µM (inactive) | – | > 100 µM (inactive) | > 100 µM (inactive) | > 100 µM (inactive) | – | > 100 µM (inactive) | – | – | > 100 µM (inactive) | – | > 100 µM (inactive) | > 100 µM (inactive) | > 100 µM (inactive) | –
7 | Cc1cc2nc3c(N)nn(CCCN(C)C)c3nc2cc1C | 55 µM (inactive) | 41.3 µM (inactive) | > 100 µM | – | – | – | > 100 µM (inactive) | > 100 µM (inactive) | – | > 100 µM (inactive) | > 100 µM (inactive) | – | 71.6 µM (inactive) | 46.6 µM (inactive) | > 100 µM (inactive) | > 100 µM (inactive) | – | 59.7 µM (inactive) | > 100 µM (inactive)
8 | O=C1c2c(O)cccc2Cc2cc(CO)cc(O)c21 | 1.87 µM (inactive) | 2.66 µM (inactive) | 3.22 µM | 2.96 µM (inactive) | 5.36 µM (inactive) | – | 2.05 µM (inactive) | 1.52 µM (inactive) | – | 1.69 µM (inactive) | 2.49 µM (inactive) | 2.82 µM (inactive) | 4.08 µM (inactive) | 1.89 µM (inactive) | – | 1.05 µM (active) | 2.74 µM (inactive) | 3.59 µM (inactive) | –
